Measured values: publication PMC7026480, “Discovery of Multitarget-Directed Ligands Against Influenza A Virus From Compound Yizhihao Through a Predictive System for Compound-Protein Interactions” (Frontiers in Cellular and Infection Microbiology, 2020)
Read-outs that look alike come from different tables or passages of the source.

Experiments:
[1] = target: neuraminidase (NA) of A/HebeiXinhua/SWL1106/2017 (oseltamivir- and amantadine-resistant H1N1); format: biochemical, influenza A virus; details: read-out: IC50, NA inhibition test, A/HebeiXinhua/SWL1106/2017
[2] = target: neuraminidase (NA) of A/FujianXinluo/SWL2457/2014 (amantadine-resistant H1N1); format: biochemical, influenza A virus; details: read-out: IC50, NA inhibition test, A/FujianXinluo/SWL2457/2014
[3] = test system: wild-type and resistant IAV strains; assay: microbe, parasite or virus in culture; format: cell-based, influenza A virus; details: for IC50: Influenza A virus, read-out: IC50, protective effects for cells infected with the resistant IAV strains (CPE)
[4] = test system: A/HebeiXinhua/SWL1106/2017 (oseltamivir- and amantadine-resistant H1N1); assay: microbe, parasite or virus in culture; format: cell-based, influenza A virus
[5] = test system: A/FujianXinluo/SWL2457/2014 (amantadine-resistant H1N1); assay: microbe, parasite or virus in culture; format: cell-based; details: Influenza A virus, H1N1, MDCK
[6] = Influenza A virus, H1N1, MDCK, read-out: IC50, CPE reduction, A/HebeiXinhua/SWL1106/2017, Drug administration after virus inoculation
[7] = Influenza A virus, H1N1, MDCK, read-out: IC50, CPE reduction, A/HebeiXinhua/SWL1106/2017, Pre-incubation of virus and drug
[8] = Influenza A virus, H1N1, MDCK, read-out: IC50, CPE reduction, A/HebeiXinhua/SWL1106/2017, Simultaneous action of virus and drug
[9] = Influenza A virus, H1N1, MDCK, read-out: IC50, CPE reduction, A/HebeiXinhua/SWL1106/2017, Virus inoculation after drug administration
[10] = read-out: IC50, dual-oseltamivir and amantadine-resistant H1N1 CPE assay, all modes except for drug administration after viral infection
[11] = read-out: IC50, CPE reduction, A/FujianXinluo/SWL2457/2014, Drug administration after virus inoculation
[12] = read-out: IC50, CPE reduction, A/FujianXinluo/SWL2457/2014, Pre-incubation of virus and drug
[13] = read-out: IC50, CPE reduction, A/FujianXinluo/SWL2457/2014, Simultaneous action of virus and drug
[14] = read-out: IC50, CPE reduction, A/FujianXinluo/SWL2457/2014, Virus inoculation after drug administration

For C=C(C(=O)O)[C@H]1CC[C@H](C)[C@@H]2CC(=O)C(C)=C2C1 (stereo in doubt) [Rupestonic acid], the IC50 [1] was > 100 µM and the IC50 [2] was > 100 µM.

O=c1cc(-c2ccc(O)cc2)oc2cc(O)cc(O)c12 [Apigenin] was tested, and the IC50 [3] was < 100 µM, the IC50 [4, 6] was > 100 µM and the IC50 [4, 7] was 31.6 ± 10.3 µM. The IC50 [4, 8] was 35.4 ± 3.98 µM, the IC50 [4, 9] was 39 ± 3.82 µM and the IC50 [4, 10] was < 100 µM. For the same compound, the IC50 [5, 11] was 28.1 ± 2.37 µM, the IC50 [5, 12] was 32.1 ± 4.13 µM and the IC50 [5, 13] was 40.5 ± 4 µM. It also gave an IC50 [5, 14] of 36.5 ± 5.79 µM.

For O=C(/C=C/c1ccc(O)c(O)c1)O[C@@H]1C[C@](O)(C(=O)O)C[C@@H](O)[C@H]1O [Chlorogenic acid], the “inhibition of virus-induced CPE” value [3] was “no inhibition of virus-induced CPE”, the IC50 [1] was > 100 µM and the IC50 [2] was > 100 µM.

With C=C[C@@H]1CNC(=S)O1 [Epigoitrin] the IC50 [1] was > 100 µM and the IC50 [2] was > 100 µM.

O=c1cc(-c2ccc(O)c(O)c2)oc2cc(O)cc(O)c12 [Luteolin] was tested, and the IC50 [3] was < 100 µM, the IC50 [4, 6] was > 100 µM and the IC50 [4, 7] was 15.2 ± 4.46 µM. For the same compound, the IC50 [4, 8] was 20.1 ± 10.6 µM, the IC50 [4, 9] was 47.2 ± 7.14 µM and the IC50 [4, 10] was < 100 µM. The IC50 [5, 11] was 31.9 ± 1.99 µM, the IC50 [5, 12] was 1.14 ± 1.02 µM and the IC50 [5, 13] was 24.9 ± 9.62 µM. For the same compound, the IC50 [5, 14] was > 100 µM.

O=c1cc(-c2ccc(O)c(O)c2)oc2c([C@@H]3O[C@H](CO)[C@@H](O)[C@H](O)[C@H]3O)c(O)cc(O)c12 [Orientin] was tested, and the “inhibition of virus-induced CPE” value [3] was “no inhibition of virus-induced CPE”, the IC50 [1] was > 100 µM and the IC50 [2] was > 100 µM.

In the case of CCOC(=O)C1=C[C@@H](OC(CC)CC)[C@H](NC(C)=O)[C@@H](N)C1 [Oseltamivir, oseltamivir phosphate, reference compound], the “IC50, dual-oseltamivir and amantadine-resistant H1N1 CPE assay, in the modes tested” value [4] is reported as “no effect”, the IC50 [4, 6] is reported as > 100 µM and the IC50 [4, 7] is reported as > 100 µM. For the same compound, the IC50 [4, 8] was > 100 µM, the IC50 [4, 9] was > 100 µM and the IC50 [5, 11] was 86.9 ± 7.8 µM. For the same compound, the IC50 [5, 12] was 25.4 ± 8.32 µM, the IC50 [5, 13] was 25.5 ± 8.36 µM and the IC50 [5, 14] was > 100 µM.

For O=c1c(O)c(-c2ccc(O)c(O)c2)oc2cc(O)cc(O)c12 [Quercetin], the IC50 [3] was < 100 µM, the IC50 [4, 6] was > 100 µM and the IC50 [4, 7] was 6.93 ± 4.6 µM. The IC50 [4, 8] was 14.6 ± 1.8 µM, the IC50 [4, 9] was 19.1 ± 1.95 µM and the IC50 [4, 10] was < 100 µM. The IC50 [5, 11] was 20.7 ± 14.7 µM, the IC50 [5, 12] was 7.73 ± 3.04 µM and the IC50 [5, 13] was 37.1 ± 18.2 µM. The IC50 [5, 14] was 86.1 ± 13.8 µM.

NC(=O)c1ncn([C@@H]2O[C@H](CO)[C@@H](O)[C@H]2O)n1 [Ribavirin, ribavirin, reference compound] was tested, and the IC50 [4, 6] was 57.9 ± 10.5 µM, the IC50 [4, 7] was 29.8 ± 6.4 µM and the IC50 [4, 8] was 36.2 ± 13.7 µM. It also gave an IC50 [4, 9] of 39.9 ± 9.71 µM, an IC50 ([4]; Influenza A virus, H1N1, MDCK, read-out: IC50, dual-oseltamivir and amantadine-resistant H1N1 CPE assay, in the modes tested) of 29.8 to 57.9 µM and an IC50 [5, 11] of 25.9 ± 14.6 µM. The IC50 [5, 12] was 24.6 ± 3.1 µM, the IC50 [5, 13] was 26.2 ± 2.4 µM and the IC50 [5, 14] was 86.7 ± 9.8 µM.
